Source: patent US8088887B2, “Peptide-conjugates that bind to VEGF-stimulated or tumor vasculature and methods of treatment” (Academia Sinica, priority 2007, dated 2012)
Entries after “also recorded” stand apart in the source; their conditions may differ.

Key:
oral cancer xenografts = experiment: Peptide competitive inhibition of IVO-2 phage homing, oral cancer xenografts; type: in vivo, SCID mice
[1] = tested on: NSCLC tumor mass (CL1-5-derived tumors); experiment: Peptide competitive inhibition of PC5-52 phage homing, lung cancer xenografts; type: in vivo, SCID mice
Protocol: To investigate the targeting ability of PC5-52, phages were injected into the tail vein of SCID mice bearing human lung cancer cell-derived tumors and recovered after perfusion. We determined the titers of the phages in tumor mass and other normal organs. The phage clones, or control helper phage (insertless phage), were injected into the tail vein (i.v.) of SCID mice bearing human lung cancer tumor xenografts for 8 min or 24 h. After perfusion, xenograft tumors and organs were removed and the recovered phage titered. In peptide competitive inhibition experiments, described below, phage clones were co-injected with 100 μg synthetic peptide. After injection of candidate or control phage clones, the organs and tumors were removed and divided into two parts. One part was titered by ER2738, and another part was embedded in Optimal Cutting Temperature (OCT, Tissue-Tek, NL, USA). The OCT-embedded frozen tissues were sectioned at 5 microns and transferred to cold PBS buffer. Then, the sections were fixed with acetone-methanol (1:1), washed with PBS and immersed in blocking buffer (1% BSA in PBS) for 1 h. The blocked samples were then incubated with rat anti-mouse CD31 (BD Pharmingen, Mass., USA.), rabbit anti-rat Ab (Stressgen, Canada) and immersed in Rhodamine labeled goat anti-rabbit antibody (Jackson ImmunoResearch, Pa., USA.). […]

| Sequence | inhibition of IVO-2 homing to tumor tissue (oral cancer xenografts; co-injected peptide, FIG. 2D) | inhibition of IVO-2 homing to oral cancer xenografts (oral cancer xenografts; coinjection of 100 μg peptide) [%] | inhibition of PC5-52 homing to NSCLC tumor mass ([1]; 100 μg peptide co-injected with phage) [%] | inhibition of tumor homing ability of PC5-52 ([1]; co-injected peptide, CL1-5-derived tumors, FIG. 2B/4B) |
| --- | --- | --- | --- | --- |
| RLLDTNRPLLPY [Control peptide, synthetic control peptide, reference compound] | could not inhibit | – | – | – |
| SVSVGMKPSPRP [SP5-52] | – | 95.9 | 97 | inhibited markedly; also recorded: markedly inhibited |
